According to patent US20240246932A1 (Merck Sharp & Dohme LLC, priority 2021, published 2024):

These compounds were tested against human NaV 1.8 channels stably expressed in HEK 293 cells (Homo sapiens (Human), UniProt Q9Y5Y9) (assay: Nav1.8 Qube automated patch-clamp assay). Conditions: human NaV1.8 in HEK 293 cells, whole-cell voltage clamp, room temperature; read-out: IC50 values (nM) for Examples in the Nav1.8 Qube Assay.
Assay type: cell-based
How it was run: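 Whole-cell voltage clamp at room temperature on HEK293 cells; from −90 mV, a 10 s 1 Hz train of 20 ms pulses to 10 mV (repolarising to −67 mV) was applied. Peak currents at pulses 1 and 10 gave resting- and inactivated-state inhibition; IC50 fitted by Hill equation. Internal CsF/CsCl buffer.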

Sequence of human NaV 1.8 channels stably expressed in HEK 293 cells (Q9Y5Y9 whole entry): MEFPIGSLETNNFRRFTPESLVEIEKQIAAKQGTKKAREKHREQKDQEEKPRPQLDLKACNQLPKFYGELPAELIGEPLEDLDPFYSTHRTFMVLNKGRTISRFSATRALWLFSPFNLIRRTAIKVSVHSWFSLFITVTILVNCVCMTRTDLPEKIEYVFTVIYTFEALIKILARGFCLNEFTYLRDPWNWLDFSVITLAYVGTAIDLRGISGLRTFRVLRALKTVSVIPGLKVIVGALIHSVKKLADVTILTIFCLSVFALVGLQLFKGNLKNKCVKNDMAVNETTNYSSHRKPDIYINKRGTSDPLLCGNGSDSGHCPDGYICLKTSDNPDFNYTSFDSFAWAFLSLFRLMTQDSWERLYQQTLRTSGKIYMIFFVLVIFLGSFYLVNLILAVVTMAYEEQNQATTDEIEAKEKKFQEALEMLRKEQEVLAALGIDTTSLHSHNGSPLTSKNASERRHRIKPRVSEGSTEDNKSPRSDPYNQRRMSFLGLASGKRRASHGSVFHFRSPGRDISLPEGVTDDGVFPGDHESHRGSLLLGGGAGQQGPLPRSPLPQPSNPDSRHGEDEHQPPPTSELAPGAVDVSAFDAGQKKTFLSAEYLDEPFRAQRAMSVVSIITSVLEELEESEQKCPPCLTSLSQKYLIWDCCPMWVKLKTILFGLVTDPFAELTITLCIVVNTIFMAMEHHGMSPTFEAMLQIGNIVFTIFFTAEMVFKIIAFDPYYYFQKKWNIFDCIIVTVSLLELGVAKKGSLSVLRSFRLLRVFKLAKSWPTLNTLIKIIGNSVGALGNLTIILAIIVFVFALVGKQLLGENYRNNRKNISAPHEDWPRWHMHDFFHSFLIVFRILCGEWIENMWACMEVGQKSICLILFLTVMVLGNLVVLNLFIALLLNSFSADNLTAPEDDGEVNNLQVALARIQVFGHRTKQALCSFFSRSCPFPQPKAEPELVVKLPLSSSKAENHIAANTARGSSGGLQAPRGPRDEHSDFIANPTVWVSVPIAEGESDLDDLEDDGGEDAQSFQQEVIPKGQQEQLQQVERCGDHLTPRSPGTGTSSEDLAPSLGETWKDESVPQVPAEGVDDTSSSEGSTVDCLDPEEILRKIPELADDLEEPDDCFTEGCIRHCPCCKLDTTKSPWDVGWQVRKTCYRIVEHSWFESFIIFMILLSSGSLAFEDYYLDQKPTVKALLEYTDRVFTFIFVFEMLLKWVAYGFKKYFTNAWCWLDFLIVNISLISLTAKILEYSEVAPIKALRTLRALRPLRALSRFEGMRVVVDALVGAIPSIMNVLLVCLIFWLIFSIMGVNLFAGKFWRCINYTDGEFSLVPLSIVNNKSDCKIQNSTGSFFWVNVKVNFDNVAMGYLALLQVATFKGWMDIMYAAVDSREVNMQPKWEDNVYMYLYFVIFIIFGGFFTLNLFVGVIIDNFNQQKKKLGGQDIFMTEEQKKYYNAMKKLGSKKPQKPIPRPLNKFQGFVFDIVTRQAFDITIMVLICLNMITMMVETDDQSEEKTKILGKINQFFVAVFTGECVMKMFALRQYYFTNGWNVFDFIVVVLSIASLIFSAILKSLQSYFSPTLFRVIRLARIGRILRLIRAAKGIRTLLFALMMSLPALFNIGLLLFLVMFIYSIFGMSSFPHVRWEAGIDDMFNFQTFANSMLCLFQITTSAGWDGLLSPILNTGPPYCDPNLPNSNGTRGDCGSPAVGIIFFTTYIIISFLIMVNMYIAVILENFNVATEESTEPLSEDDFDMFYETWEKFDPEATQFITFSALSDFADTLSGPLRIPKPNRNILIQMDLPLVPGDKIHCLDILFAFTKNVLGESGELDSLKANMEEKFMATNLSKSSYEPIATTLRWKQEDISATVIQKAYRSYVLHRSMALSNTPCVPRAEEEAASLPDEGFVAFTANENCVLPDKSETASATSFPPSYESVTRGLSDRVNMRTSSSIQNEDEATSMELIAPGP

| IC50 | SMILES |
| --- | --- |
| 4.46 nM | O=C1CN(C(=O)NC(c2ccc(OCC(F)(F)F)nc2)c2ccc(F)c(Cl)c2F)CCN1 (single isomer, unassigned) [Example 8A, N-((R or S)-(3-chloro-2,4-difluorophenyl)(6-(2,2,2-trifluoroethoxy)pyridin-3-yl)methyl)-3-oxopiperazine-1-carboxamide] |
| 501 nM | C[C@@H]1C(=O)NCCN1C(=O)NC(c1cnc(OCC(F)(F)F)nc1)c1ccc(F)c(Cl)c1F (single isomer, unassigned) [Example 12B] |
| 202 nM | C[C@@H]1C(=O)NCCN1C(=O)NC(c1cnc(C(F)(F)F)c(Cl)c1)c1csc(C(F)(F)F)n1 (single isomer, unassigned) [Example 84B, (2R)-N-((S or R)-(5-chloro-6-(trifluoromethyl)pyridin-3-yl)(2-(trifluoromethyl)thiazol-4-yl)methyl)-2-methyl-3-oxopiperazine-1-carboxamide] |
| 4.96 nM | C[C@@H]1C(=O)NCCN1C(=O)NC(c1ccc(OC(F)(F)F)c(Cl)c1)c1coc(C(F)(F)F)n1 (single isomer, unassigned) [Example 64A, (2R)-N-((R or S)-(3-chloro-4-(trifluoro-methoxy)phenyl)(2-(trifluoromethyl)oxazol-4-yl)methyl)-2-methyl-3-oxopiperazine-1-carboxamide] |
| 10.8 nM | C[C@@H]1C(=O)NCCN1C(=O)NC(c1ccc(OCC(F)(F)F)nc1)c1cc(F)c(F)c(Cl)c1 (single isomer, unassigned) [Example 7A, (2R)-N-((R or S)-(3-chloro-4,5-difluorophenyl)(6-(2,2,2-trifluoro-ethoxy)pyridin-3-yl)methyl)-2-methyl-3-oxopiperazine-1-carboxamide] |
| 8.55 nM | C[C@@H]1C(=O)NCCN1C(=O)NC(c1ccc(OCC(F)(F)F)nc1)c1ccc(F)c(C(F)(F)F)n1 (single isomer, unassigned) [Example 50B, (2R)-N-((S or R)-(5-fluoro-6-(trifluoro-methyl)pyridin-2-yl)(6-(2,2,2-trifluoro-ethoxy)pyridin-3-yl)methyl)-2-methyl-3-oxopiperazine-1-carboxamide] |
| 2.45 nM | C[C@@H]1C(=O)NCCN1C(=O)NC(c1cnc(C(F)(F)F)s1)c1ccc(F)c(Cl)c1F (single isomer, unassigned) [Example 62B] |
| 3.81 nM | C[C@@H]1C(=O)NCCN1C(=O)NC(c1ccc(F)c(Cl)c1)c1cnc(C(F)(F)F)c(Cl)c1 (single isomer, unassigned) [Example 26B, (2R)-N-((S or R)-(3-chloro-4-fluoro-phenyl)(5-chloro-6-(trifluoromethyl)pyridin-3-yl)methyl)-2-methyl-3-oxopiperazine-1-carboxamide] |
| 6.79 nM | C[C@@H]1C(=O)NCCN1C(=O)NC(c1ccc(OCC(F)(F)F)cc1)c1ccc(F)c(C(F)(F)F)n1 (single isomer, unassigned) [Example 57A, (2R)-N-((R or S)-(5-fluoro-6-(trifluoro-methyl)pyridin-2-yl)(4-(2,2,2-trifluoro-ethoxy)phenyl)methyl)-2-methyl-3-oxopiperazine-1-carboxamide] |
| 19.6 nM | C[C@@H]1C(=O)NCCN1C(=O)NC(c1ccc(OCC(F)(F)F)nc1)c1cc(F)c(F)c(Cl)c1 (single isomer, unassigned) [Example 7B, (2R)-N-((S or R)-(3-chloro-4,5-difluoro-phenyl)(6-(2,2,2-tri-fluoroethoxy)pyridin-3-yl)methyl)-2-methyl-3-oxo-piperazine-1-carboxamide] |
| 52.6 nM | C[C@@H]1C(=O)NCCN1C(=O)NC(c1cnc(C2CC2)c(Cl)c1)c1ccc(F)c(Cl)c1F (single isomer, unassigned) [Example 27A, (2R)-N-((R or S)-(3-chloro-2,4-difluoro-phenyl)(5-chloro-6-cyclopropylpyridin-3-yl)methyl)-2-methyl-3-oxopiperazine-1-carboxamide] |
